Measured values: PubChem BioAssay (NCI)
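All cell lines were grown in 96-well plates and treated with compound for 48 hours. GI50 = concentration required for 50% inhibition of growth. Definition used: TGI = concentration required for complete inhibition of growth.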

Key:
Experiment in all cases: NCI-60 cell line screen, 48 h
SK-MEL-2 melanoma = tested on: SK-MEL-2 melanoma
SF-268 CNS = tested on: SF-268 CNS
K-562 leukemia = tested on: K-562 leukemia
DU-145 prostate = tested on: DU-145 prostate
KM12 colon = tested on: KM12 colon
TK-10 renal = tested on: TK-10 renal
HOP-62 NSCLC = tested on: HOP-62 NSCLC
HOP-92 NSCLC = tested on: HOP-92 NSCLC
U251 CNS = tested on: U251 CNS
A498 renal = tested on: A498 renal
SN12C renal = tested on: SN12C renal
OVCAR-4 ovarian = tested on: OVCAR-4 ovarian
MDA-MB-435 = tested on: MDA-MB-435
HS 578T breast = tested on: HS 578T breast
M14 melanoma = tested on: M14 melanoma
PC-3 prostate = tested on: PC-3 prostate
SK-OV-3 ovarian = tested on: SK-OV-3 ovarian
UACC-62 melanoma = tested on: UACC-62 melanoma
MOLT-4 leukemia = tested on: MOLT-4 leukemia
LOX IMVI melanoma = tested on: LOX IMVI melanoma
SNB-19 CNS = tested on: SNB-19 CNS
A549 NSCLC = tested on: A549 NSCLC
OVCAR-8 ovarian = tested on: OVCAR-8 ovarian
SW-620 colon = tested on: SW-620 colon
CCRF-CEM leukemia = tested on: CCRF-CEM leukemia
HCC-2998 colon = tested on: HCC-2998 colon
SK-MEL-28 melanoma = tested on: SK-MEL-28 melanoma
IGROV1 ovarian = tested on: IGROV1 ovarian
UACC-257 melanoma = tested on: UACC-257 melanoma
CAKI-1 renal = tested on: CAKI-1 renal
OVCAR-5 ovarian = tested on: OVCAR-5 ovarian
HL-60(TB) leukemia = tested on: HL-60(TB) leukemia
NCI-H460 lung = tested on: NCI-H460 lung
NCI/ADR-RES ovarian = tested on: NCI/ADR-RES ovarian
MDA-MB-231 breast = tested on: MDA-MB-231 breast
RXF 393 renal = tested on: RXF 393 renal
SNB-75 CNS = tested on: SNB-75 CNS
NCI-H226 lung = tested on: NCI-H226 lung
SF-539 CNS = tested on: SF-539 CNS
BT-549 breast = tested on: BT-549 breast
SR leukemia = tested on: SR leukemia
NCI-H23 lung = tested on: NCI-H23 lung
COLO 205 colon = tested on: COLO 205 colon
RPMI-8226 leukemia = tested on: RPMI-8226 leukemia
T-47D breast = tested on: T-47D breast
OVCAR-3 ovarian = tested on: OVCAR-3 ovarian
SK-MEL-5 melanoma = tested on: SK-MEL-5 melanoma
HCT-116 colon = tested on: HCT-116 colon
HCT-15 colon = tested on: HCT-15 colon
UO-31 renal = tested on: UO-31 renal
MCF7 breast = tested on: MCF7 breast
SF-295 CNS = tested on: SF-295 CNS
HT29 colon = tested on: HT29 colon
786-0 renal = tested on: 786-0 renal
NCI-H522 lung = tested on: NCI-H522 lung
ACHN renal = tested on: ACHN renal

Compound: N#Cc1cccc(OCc2nc(N)nc(N)c2-c2ccc(Cl)c(Cl)c2)c1
- GI50 (SK-MEL-2 melanoma): 6.68 µM
- TGI (SK-MEL-2 melanoma): > 100 µM
- GI50 (SF-268 CNS): 3.05 µM
- TGI (SF-268 CNS): > 100 µM
- GI50 (K-562 leukemia): 0.384 µM
- TGI (K-562 leukemia): > 100 µM
- GI50 (DU-145 prostate): 4.08 µM
- TGI (DU-145 prostate): > 100 µM
- GI50 (KM12 colon): 2.96 µM
- TGI (KM12 colon): 82.4 µM
- GI50 (TK-10 renal): 9.32 µM
- TGI (TK-10 renal): > 100 µM
- GI50 (HOP-62 NSCLC): 4.44 µM
- TGI (HOP-62 NSCLC): > 100 µM
- GI50 (HOP-92 NSCLC): 1.82 µM
- TGI (HOP-92 NSCLC): 9.06 µM
- GI50 (U251 CNS): 0.749 µM
- TGI (U251 CNS): > 100 µM
- GI50 (A498 renal): 2.9 µM
- TGI (A498 renal): > 100 µM
- GI50 (SN12C renal): 2.23 µM
- TGI (SN12C renal): > 100 µM
- GI50 (OVCAR-4 ovarian): > 100 µM
- TGI (OVCAR-4 ovarian): > 100 µM
- GI50 (MDA-MB-435): 0.486 µM
- TGI (MDA-MB-435): > 100 µM
- GI50 (HS 578T breast): 4.41 µM
- TGI (HS 578T breast): > 100 µM
- GI50 (M14 melanoma): 0.639 µM
- TGI (M14 melanoma): > 100 µM
- GI50 (PC-3 prostate): 0.604 µM
- TGI (PC-3 prostate): > 100 µM
- GI50 (SK-OV-3 ovarian): 9.56 µM
- TGI (SK-OV-3 ovarian): > 100 µM
- GI50 (UACC-62 melanoma): 0.442 µM
- TGI (UACC-62 melanoma): > 100 µM
- GI50 (MOLT-4 leukemia): 2.83 µM
- TGI (MOLT-4 leukemia): > 100 µM
- GI50 (LOX IMVI melanoma): 0.575 µM
- TGI (LOX IMVI melanoma): > 100 µM
- GI50 (SNB-19 CNS): 4.28 µM
- TGI (SNB-19 CNS): > 100 µM
- GI50 (A549 NSCLC): 0.426 µM
- TGI (A549 NSCLC): > 100 µM
- GI50 (OVCAR-8 ovarian): 0.765 µM
- TGI (OVCAR-8 ovarian): > 100 µM
- GI50 (SW-620 colon): 0.484 µM
- TGI (SW-620 colon): > 100 µM
- GI50 (CCRF-CEM leukemia): 2.03 µM
- TGI (CCRF-CEM leukemia): > 100 µM
- GI50 (HCC-2998 colon): 4.11 µM
- TGI (HCC-2998 colon): > 100 µM
- GI50 (SK-MEL-28 melanoma): 14.5 µM
- TGI (SK-MEL-28 melanoma): > 100 µM
- GI50 (IGROV1 ovarian): 1.46 µM
- TGI (IGROV1 ovarian): > 100 µM
- GI50 (UACC-257 melanoma): 2.92 µM
- TGI (UACC-257 melanoma): > 100 µM
- GI50 (CAKI-1 renal): 0.893 µM
- TGI (CAKI-1 renal): > 100 µM
- GI50 (OVCAR-5 ovarian): 6.87 µM
- TGI (OVCAR-5 ovarian): > 100 µM
- GI50 (HL-60(TB) leukemia): 1.55 µM
- TGI (HL-60(TB) leukemia): > 100 µM
- GI50 (NCI-H460 lung): 0.435 µM
- TGI (NCI-H460 lung): > 100 µM
- GI50 (NCI/ADR-RES ovarian): 1.19 µM
- TGI (NCI/ADR-RES ovarian): > 100 µM
- GI50 (MDA-MB-231 breast): 6.13 µM
- TGI (MDA-MB-231 breast): > 100 µM
- GI50 (RXF 393 renal): 2.13 µM
- TGI (RXF 393 renal): > 100 µM
- GI50 (SNB-75 CNS): 5.67 µM
- TGI (SNB-75 CNS): > 100 µM
- GI50 (NCI-H226 lung): 7.44 µM
- TGI (NCI-H226 lung): > 100 µM
- GI50 (SF-539 CNS): 1.43 µM
- TGI (SF-539 CNS): 65.4 µM
- GI50 (BT-549 breast): 3.01 µM
- TGI (BT-549 breast): > 100 µM
- GI50 (SR leukemia): 2.39 µM
- TGI (SR leukemia): > 100 µM
- GI50 (NCI-H23 lung): 2.42 µM
- TGI (NCI-H23 lung): > 100 µM
- GI50 (COLO 205 colon): 5.3 µM
- TGI (COLO 205 colon): > 100 µM
- GI50 (RPMI-8226 leukemia): 4.65 µM
- TGI (RPMI-8226 leukemia): > 100 µM
- GI50 (T-47D breast): 8.25 µM
- TGI (T-47D breast): > 100 µM
- GI50 (OVCAR-3 ovarian): 5.53 µM
- TGI (OVCAR-3 ovarian): > 100 µM
- GI50 (SK-MEL-5 melanoma): 1.29 µM
- TGI (SK-MEL-5 melanoma): > 100 µM
- GI50 (HCT-116 colon): 0.472 µM
- TGI (HCT-116 colon): > 100 µM
- GI50 (HCT-15 colon): 0.575 µM
- TGI (HCT-15 colon): > 100 µM
- GI50 (UO-31 renal): 3.23 µM
- TGI (UO-31 renal): > 100 µM
- GI50 (MCF7 breast): 3.09 µM
- TGI (MCF7 breast): > 100 µM
- GI50 (SF-295 CNS): 0.46 µM
- TGI (SF-295 CNS): 14.3 µM
- GI50 (HT29 colon): 0.797 µM
- TGI (HT29 colon): > 100 µM
- GI50 (786-0 renal): 0.513 µM
- TGI (786-0 renal): > 100 µM
- GI50 (NCI-H522 lung): 5.62 µM
- TGI (NCI-H522 lung): > 100 µM
- GI50 (ACHN renal): 0.896 µM
- TGI (ACHN renal): > 100 µM
